From patent US20080287375A1, “Selective Glycosidase Inhibitors, Methods of Making Inhibitors, and Uses Thereof” (SIMON FRASER UNIVERSITY, priority 2005, published 2008)

Test system: O-GlcNAc modified proteins in rat tissues
Assay: Oral availability: tissue O-GlcNAc levels in rats fed inhibitor in chow
Type: in vivo
Description: To determine if the inhibitor 9c is orally available, it was incorporated into the chow (Lab Diet 5001 Rodent Diet, PMI Nutrition International, LLC). To make the rat chow, 600 g of the ground chow was mixed with 355 ml of water and 5 μL of the inhibitor dissolved in ethanol. Small pieces were then prepared with a pasta machine (Pasta Express, Creative) and dehydrated overnight at 37° C. (Snackmaster Dehydrator, American Harvest). Five sets of chow were made with the following amounts of inhibitor: 0 mg kg^−1 days^−1, 100 or 1000 mg kg^−1 days^−1 of the deprotected (polar) inhibitor, and 100 or 1000 mg kg^−1 day^−1 of the protected (non-polar) inhibitor. […] Ten five-week old healthy Sprague-Dawley rats (two per set of food) were then allowed to feed on the rat chow for three days. The animals were then sacrificed and tissues were collected, homogenized, and analyzed as described above.

[1] = rats fed inhibitor in food for three days

Compound: CCCC1=N[C@@H]2[C@@H](O)[C@H](O)[C@@H](CO)O[C@@H]2S1 [Compound 9c, 1,2-dideoxy-2′-propyl-α-D-glucopyranoso-[2,1-d]-2′-thiazoline]
- cellular levels of O-GlcNAc modified proteins in brain tissue, oral 100 mg/kg/day (rats fed inhibitor in chow for three days): marked increases
- cellular levels of O-GlcNAc modified proteins in brain tissue, oral 1000 mg/kg/day (rats fed inhibitor in chow for three days, compared with 100 mg/kg/day): even greater
- O-GlcNAc modified proteins in brain, muscle, pancreas, fat and spleen, oral 100 mg kg^−1 day^−1 (FIG. 12 legend) [1]: large increases
- O-GlcNAc modified proteins in tissues, oral 1000 mg kg^−1 days^−1 (FIG. 12 legend) [1]: slightly greater increases
